The values below come from patent US10280171B2, “Heterocyclic inhibitors of PTPN11” (priority 2016, dated 2019).

The subject of the first assay is Phospho-ERK levels in KYSE-520 cells. As to the kind of experiment: pERK AlphaScreen Protocol. It counts as cell-based. Conditions: Homo sapiens, KYSE-520, 2 h, KYSE-520 cells, 2 hr compound incubation, phospho-ERK1/2 AlphaScreen SureFire; read-out: PERK Avg IC50. How it is done:
KYSE-520 cells (10 k cells/well) were grown in 384-well plate in 20 uL of medium (RPMI-1640, without phenol red, containing 10% FBS) at 37° C. with 5% CO2 overnight. DMSO (control) or increasing concentrations of compounds were diluted in medium, added to the 384-well plate (5 uL/well, final DMSO concentration of 1%), and cells were then incubated with compounds for 2 hr. Phospho-ERK levels were measured using phospho-ERK1/2 AlphaScreen SureFire (PerkinElmer, TGRESB10K) following manufacturer's recommendations. Dose-response curves were analyzed using IC50 regression curve fitting (GeneData Screener). Curves were normalized to a high control without inhibitor (DMSO only), and low control (1 μM selumetinib).
For `CNc1nccc(-c2n[nH]c3nc(N4CCC(C)(N)CC4)cnc23)c1Cl` [Example 112, 4-(6-(4-Amino-4-methylpiperidin-1-yl)-1H-pyrazolo[3,4-b]pyrazin-3-yl)-3-chloro-N-methylpyridin-2-amine], the IC50 amounted to 0.058 µM. The same measure, in the same setting: the result for `N[C@@H]1CCCC12CCN(c1cnc3c(-c4cccnc4Cl)n[nH]c3n1)CC2` [Example 53, (R)-8-(3-(2-chloro-pyridin-3-yl)-1H-pyrazolo[3,4-b]-pyrazin-6-yl)-8-aza-spiro[4.5]decan-1-amine] reads 0.224 µM; that for `NC1(CO)CCN(c2cnc3c(-c4cccnc4Cl)n[nH]c3n2)CC1` [Example 59, (4-amino-1-(3-(2-chloropyridin-3-yl)-1H-pyrazolo[3,4-b]pyrazin-6-yl)-piperidin-4-yl)-methanol], 1.04 µM. As for `CC1(N)CCN(c2cnc3c(-c4c(F)cccc4Cl)n[nH]c3n2)CC1` [Example 32, 1-(3-(2-chloro-6-fluorophenyl)-1H-pyrazolo[3,4-b]-pyrazin-6-yl)-4-methylpiperidin-4-amine], the IC50 was found to be 0.284 µM. Same read-out and setting: the result for `N[C@@H]1COCC12CCN(c1cnc3c(-c4cccc(Cl)c4Cl)n[nH]c3n1)CC2` [Example 38, (S)-8-(3-(2,3-Dichlorophenyl)-1H-pyrazolo[3,4-b]pyrazin-6-yl)-2-oxa-8-azaspiro[4.5]-decan-4-amine] reads 0.04 µM; that for `N[C@@H]1CCCC12CCN(c1cnc3c(-c4ccc(Cl)c(Cl)c4)n[nH]c3n1)CC2` [Example 46, (R)-8-(3-(3,4-dichloro-phenyl)-1H-pyrazolo[3,4-b]-pyrazin-6-yl)-8-aza-spiro[4.5]decan-1-amine], 0.666 µM; that for `N[C@@H]1COCC12CCN(c1cnc3c(-c4cccc(F)c4Cl)n[nH]c3n1)CC2` [Example 42, (S)-8-(3-(2-chloro-3-fluorophenyl)-1H-pyrazolo[3,4-b]-pyrazin-6-yl)-2-oxa-8-azaspiro[4.5]-decan-4-amine], 0.063 µM. Same read-out and setting: next, `Nc1nccc(-c2n[nH]c3nc(N4CCC5(CCC5N)CC4)cnc23)c1Cl` (stereo not drawn) [Example 115, 7-(3-(2-Amino-3-chloropyridin-4-yl)-1H-pyrazolo[3,4-b]pyrazin-6-yl)-7-azaspiro[3.5]nonan-1-amine]: 0.427 µM; `NC1(CO)CCN(c2cnc3c(-c4cccc(F)c4Cl)n[nH]c3n2)CC1` [Example 62, (4-amino-1-(3-(2-chloro-3-fluoro-phenyl)-1H-pyrazolo[3,4-b]-pyrazin-6-yl)-piperidin-4-yl)-methanol]: 0.31 µM; `NCC1(O)CCN(c2cnc3c(-c4c(F)cccc4Cl)n[nH]c3n2)CC1` [Example 63, 4-(aminomethyl)-1-(3-(2-chloro-6-fluorophenyl)-1H-pyrazolo [3,4-b]-pyrazin-6-yl)-piperidin-4-ol]: 0.687 µM. On the same count and under the same terms, next, `Nc1nccc(-c2n[nH]c3nc(N4CCC5(CCC5N)CC4)cnc23)c1Cl` (single isomer, unassigned; enantiomer 1) [Example 136a, 7-[3-(2-amino-3-chloropyridine-4-yl)-1H-pyrazolo[3,4-b]-pyrazin-6-yl]-7-aza-spiro[3.5]nonan-1-amine, enantiomer 1]: 2.27 µM.

Still in this assay, the particulars now being: KYSE-520 cells, 2 hr compound incubation, phospho-ERK1/2 AlphaScreen SureFire; read-out: PERK Avg IC50.
Turning to `Nc1nccc(-c2n[nH]c3nc(N4CCC5(CCC5N)CC4)cnc23)c1Cl` (single isomer, unassigned; enantiomer 2) [Example 136b, 7-[3-(2-amino-3-chloropyridin-4-yl)-1H-pyrazolo-[3,4-b]-pyrazin-6-yl]-7-aza-spiro[3.5]nonan-1-amine, enantiomer 2], the IC50 worked out at 1.96 µM.
